# Assay results from PubChem BioAssay AID1963980 (Molecular Pharmacology Branch, DTP, NCI, 2024).
# Test system: 475296-252-R-J1-PDC spheroid viability
# Test: Anticancer human tumor 475296-252-R-J1-PDC patient-derived rectal carcinoma cell line growth inhibition [PI3K]
# Conditions: second compound 0.0316 µM; first compound 0.316 µM; hits give low values; spheroids with HUVEC and MSC
# Procedure, shortened: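 Agents were dosed from a top concentration near clinical Cmax (otherwise 10 microM) in half-log decrements, alone or combined with PI3K inhibitors. The spheroids contain tumor cells plus endothelial (HUVEC) and MSC stroma; viability is measured.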
# 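Note: spheroids exposed to agents for seven days before readout.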
row,SMILES,"viability, T/C"
1,Cn1ncc(Cl)c1-c1cc(C(=O)NC(CN)Cc2cccc(F)c2)sc1Cl (stereo unspecified) + CC(Nc1ccc2c(c1)OCCn1cc(N3C(=O)OCC3C(F)F)nc1-2)C(N)=O,63.7%
2,Cn1nccc1Nc1nccc(-c2ccn(C(CO)c3ccc(Cl)c(F)c3)c(=O)c2)n1 (stereo unspecified) + CC(Nc1ccc2c(c1)OCCn1cc(N3C(=O)OCC3C(F)F)nc1-2)C(N)=O,95.7%

# Same assay, conditions: second compound 0.0316 µM; first compound 1 µM; hits give low values; spheroids with HUVEC and MSC
row,SMILES,"viability, T/C"
1,C=CC(=O)N1CCN(c2nc(=O)n(-c3c(C)ccnc3C(C)C)c3nc(-c4c(O)cccc4F)c(F)cc23)C(C)C1 (stereo unspecified) + CC(Nc1ccc2c(c1)OCCn1cc(N3C(=O)OCC3C(F)F)nc1-2)C(N)=O,90.2%
2,CCN1CCN(Cc2ccc(Nc3ncc(F)c(-c4cc(F)c5nc(C)n(C(C)C)c5c4)n3)nc2)CC1 + CC(Nc1ccc2c(c1)OCCn1cc(N3C(=O)OCC3C(F)F)nc1-2)C(N)=O,81.8%
3,Cn1ncc(Cl)c1-c1cc(C(=O)NC(CN)Cc2cccc(F)c2)sc1Cl (stereo unspecified) + CC(Nc1ccc2c(c1)OCCn1cc(N3C(=O)OCC3C(F)F)nc1-2)C(N)=O,67.4%
4,Cn1nccc1Nc1nccc(-c2ccn(C(CO)c3ccc(Cl)c(F)c3)c(=O)c2)n1 (stereo unspecified) + CC(Nc1ccc2c(c1)OCCn1cc(N3C(=O)OCC3C(F)F)nc1-2)C(N)=O,85.8%

# Same assay, conditions: second compound 0.0316 µM; first compound 3.16 µM; hits give low values; spheroids with HUVEC and MSC
row,SMILES,"viability, T/C"
1,C=CC(=O)N1CCN(c2nc(=O)n(-c3c(C)ccnc3C(C)C)c3nc(-c4c(O)cccc4F)c(F)cc23)C(C)C1 (stereo unspecified) + CC(Nc1ccc2c(c1)OCCn1cc(N3C(=O)OCC3C(F)F)nc1-2)C(N)=O,99%
2,Cn1ncc(Cl)c1-c1cc(C(=O)NC(CN)Cc2cccc(F)c2)sc1Cl (stereo unspecified) + CC(Nc1ccc2c(c1)OCCn1cc(N3C(=O)OCC3C(F)F)nc1-2)C(N)=O,52.8%
3,Cn1nccc1Nc1nccc(-c2ccn(C(CO)c3ccc(Cl)c(F)c3)c(=O)c2)n1 (stereo unspecified) + CC(Nc1ccc2c(c1)OCCn1cc(N3C(=O)OCC3C(F)F)nc1-2)C(N)=O,82.9%

# Same assay, conditions: second compound 0.0316 µM; first compound 10 µM; hits give low values; spheroids with HUVEC and MSC
row,SMILES,"viability, T/C"
1,C=CC(=O)N1CCN(c2nc(=O)n(-c3c(C)ccnc3C(C)C)c3nc(-c4c(O)cccc4F)c(F)cc23)C(C)C1 (stereo unspecified) + CC(Nc1ccc2c(c1)OCCn1cc(N3C(=O)OCC3C(F)F)nc1-2)C(N)=O,96.3%
2,Cn1ncc(Cl)c1-c1cc(C(=O)NC(CN)Cc2cccc(F)c2)sc1Cl (stereo unspecified) + CC(Nc1ccc2c(c1)OCCn1cc(N3C(=O)OCC3C(F)F)nc1-2)C(N)=O,60.5%
3,Cn1nccc1Nc1nccc(-c2ccn(C(CO)c3ccc(Cl)c(F)c3)c(=O)c2)n1 (stereo unspecified) + CC(Nc1ccc2c(c1)OCCn1cc(N3C(=O)OCC3C(F)F)nc1-2)C(N)=O,74.7%

# Same assay, conditions: second compound 0.1 µM; first compound 0.00316 µM; hits give low values; spheroids with HUVEC and MSC
row,SMILES,"viability, T/C"
1,CCN1CCN(Cc2ccc(Nc3ncc(F)c(-c4cc(F)c5nc(C)n(C(C)C)c5c4)n3)nc2)CC1 + CC(Nc1ccc2c(c1)OCCn1cc(N3C(=O)OCC3C(F)F)nc1-2)C(N)=O,81.3%

# Same assay, conditions: second compound 0.1 µM; first compound 0.01 µM; hits give low values; spheroids with HUVEC and MSC
row,SMILES,"viability, T/C"
1,CCN1CCN(Cc2ccc(Nc3ncc(F)c(-c4cc(F)c5nc(C)n(C(C)C)c5c4)n3)nc2)CC1 + CC(Nc1ccc2c(c1)OCCn1cc(N3C(=O)OCC3C(F)F)nc1-2)C(N)=O,111%

# Same assay, conditions: second compound 0.1 µM; first compound 0.0316 µM; hits give low values; spheroids with HUVEC and MSC
row,SMILES,"viability, T/C"
1,C=CC(=O)N1CCN(c2nc(=O)n(-c3c(C)ccnc3C(C)C)c3nc(-c4c(O)cccc4F)c(F)cc23)C(C)C1 (stereo unspecified) + CC(Nc1ccc2c(c1)OCCn1cc(N3C(=O)OCC3C(F)F)nc1-2)C(N)=O,83.7%
2,CCN1CCN(Cc2ccc(Nc3ncc(F)c(-c4cc(F)c5nc(C)n(C(C)C)c5c4)n3)nc2)CC1 + CC(Nc1ccc2c(c1)OCCn1cc(N3C(=O)OCC3C(F)F)nc1-2)C(N)=O,86.6%
3,Cn1ncc(Cl)c1-c1cc(C(=O)NC(CN)Cc2cccc(F)c2)sc1Cl (stereo unspecified) + CC(Nc1ccc2c(c1)OCCn1cc(N3C(=O)OCC3C(F)F)nc1-2)C(N)=O,90.7%
4,Cn1nccc1Nc1nccc(-c2ccn(C(CO)c3ccc(Cl)c(F)c3)c(=O)c2)n1 (stereo unspecified) + CC(Nc1ccc2c(c1)OCCn1cc(N3C(=O)OCC3C(F)F)nc1-2)C(N)=O,87.6%

# Same assay, conditions: second compound 0.1 µM; first compound 0.1 µM; hits give low values; spheroids with HUVEC and MSC
row,SMILES,"viability, T/C"
1,C=CC(=O)N1CCN(c2nc(=O)n(-c3c(C)ccnc3C(C)C)c3nc(-c4c(O)cccc4F)c(F)cc23)C(C)C1 (stereo unspecified) + CC(Nc1ccc2c(c1)OCCn1cc(N3C(=O)OCC3C(F)F)nc1-2)C(N)=O,92.2%
2,CCN1CCN(Cc2ccc(Nc3ncc(F)c(-c4cc(F)c5nc(C)n(C(C)C)c5c4)n3)nc2)CC1 + CC(Nc1ccc2c(c1)OCCn1cc(N3C(=O)OCC3C(F)F)nc1-2)C(N)=O,86%
3,Cn1ncc(Cl)c1-c1cc(C(=O)NC(CN)Cc2cccc(F)c2)sc1Cl (stereo unspecified) + CC(Nc1ccc2c(c1)OCCn1cc(N3C(=O)OCC3C(F)F)nc1-2)C(N)=O,104%
